According to ChEMBL document CHEMBL1201862, “PubChem BioAssay data set” (2004):
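Interpolation was linear, between the two tested concentrations surrounding the appropriate level; five concentrations were tested over 48 hours in 96-well plates. Here, GI50 denotes the concentration required for 50% inhibition of growth.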 Activity calls are given as the source filed them. Rule as the data show it: active = GI50 up to about 1.1 µM and inactive = higher.

Key:
Assay in all cases: DTP human tumour cell line panel, 48 h
[1] = tested on: SF-539
[2] = tested on: MOLT-4
[3] = tested on: SN12C
[4] = tested on: COLO 205
[5] = tested on: IGROV-1
[6] = tested on: HCT-15
[7] = tested on: SNB-75
[8] = tested on: RPMI-8226
[9] = tested on: MCF7
[10] = tested on: CAKI-1
[11] = tested on: SK-MEL-5
[12] = tested on: 786-0
[13] = tested on: U-251
[14] = tested on: OVCAR-5
[15] = tested on: SK-MEL-28
[16] = tested on: M14
[17] = tested on: UACC-62
[18] = tested on: HCT-116
[19] = tested on: SF-295
[20] = tested on: HOP-62

Row | SMILES | GI50 [1] | GI50 [2] | GI50 [3] | GI50 [4] | GI50 [5] | GI50 [6] [µM] | GI50 [7] | GI50 [8] | GI50 [9] | GI50 [10] | GI50 [11] | GI50 [12] | GI50 [13] | GI50 [14] | GI50 [15] | GI50 [16] | GI50 [17] | GI50 [18] | GI50 [19] | GI50 [20]
1 | COc1cc2c(c(OC3OC(CO)C(O)C(O)C3O)c1)C(=O)CC(c1ccc(O)cc1)O2 (stereo not drawn) | > 100 µM (inactive) | > 100 µM (inactive) | > 100 µM (inactive) | > 100 µM (inactive) | > 100 µM (inactive) | > 100 | > 100 µM (inactive) | > 100 µM (inactive) | > 100 µM (inactive) | > 100 µM (inactive) | > 100 µM (inactive) | > 100 µM (inactive) | > 100 µM (inactive) | > 100 µM (inactive) | > 100 µM (inactive) | > 100 µM (inactive) | > 100 µM (inactive) | > 100 µM (inactive) | > 100 µM (inactive) | 
2 | CC1(C)C2CC(=O)C1(C)C(OCc1ccccc1)C2 (stereo not drawn) | > 100 µM (inactive) | 16.3 µM (inactive) | 36.6 µM (inactive) | 29.6 µM (inactive) | > 100 µM (inactive) | 26.8 | 34.2 µM (inactive) | 27.7 µM (inactive) | 64.7 µM (inactive) | 40.6 µM (inactive) | 26.3 µM (inactive) | 70 µM (inactive) | 48.3 µM (inactive) | 29.4 µM (inactive) | 94.2 µM (inactive) | 24.8 µM (inactive) | 62.5 µM (inactive) | 25.1 µM (inactive) | 68.7 µM (inactive) | 86.1 µM (inactive)
3 | CC(=O)NNC1=NN(C(C)=O)C2(S1)C(=O)Nc1ccccc12 (stereo not drawn) | > 100 µM (inactive) | > 100 µM (inactive) | > 100 µM (inactive) |  | > 100 µM (inactive) | > 100 | 65.8 µM (inactive) | > 100 µM (inactive) | > 100 µM (inactive) | > 100 µM (inactive) | > 100 µM (inactive) | > 100 µM (inactive) | > 100 µM (inactive) | > 100 µM (inactive) | > 100 µM (inactive) | > 100 µM (inactive) | > 100 µM (inactive) | > 100 µM (inactive) |  | > 100 µM (inactive)
4 | COC(=O)c1c(O)ccc2c1c1c(n2Cc2ccc(OC)cc2)C(=O)c2ccccc2C1 | 42.2 µM (inactive) | 40.8 µM (inactive) | 27 µM (inactive) | 16.9 µM (inactive) | 21.6 µM (inactive) | 52.1 | 51.2 µM (inactive) | 8.22 µM (inactive) | 22.4 µM (inactive) | 20.6 µM (inactive) | 44.6 µM (inactive) | 53.2 µM (inactive) | 47.3 µM (inactive) |  | > 100 µM (inactive) | 38.7 µM (inactive) | > 100 µM (inactive) | 60.4 µM (inactive) | 47.4 µM (inactive) | > 100 µM (inactive)
5 | CCOC(=O)C1=C(Nc2cccc(OC)c2)OCC1=O | > 100 µM (inactive) | > 100 µM (inactive) |  | > 100 µM (inactive) | > 100 µM (inactive) | > 100 | > 100 µM (inactive) | > 100 µM (inactive) | > 100 µM (inactive) | > 100 µM (inactive) | > 100 µM (inactive) | > 100 µM (inactive) | > 100 µM (inactive) |  | > 100 µM (inactive) | > 100 µM (inactive) | > 100 µM (inactive) | > 100 µM (inactive) | > 100 µM (inactive) | > 100 µM (inactive)
6 | CC(=O)c1ccc(N2CCN(C3=CC(=O)c4c(O)ccc(O)c4C3=O)CC2)cc1 | > 100 µM (inactive) | 5.38 µM (inactive) |  | 35.5 µM (inactive) | 45.9 µM (inactive) | 5.41 | 24.2 µM (inactive) | > 100 µM (inactive) | 35.9 µM (inactive) | > 100 µM (inactive) | > 10 µM (inactive) | > 100 µM (inactive) | 16.2 µM (inactive) | > 100 µM (inactive) | > 100 µM (inactive) | 40.7 µM (inactive) | 31.4 µM (inactive) | 7.57 µM (inactive) | 35 µM (inactive) | 29.9 µM (inactive)
7 | CC1=NN(c2ccccc2)C(=O)C1C(=O)C(=O)Nc1ccc(C)cc1C (stereo not drawn) | > 100 µM (inactive) | > 100 µM (inactive) | > 100 µM (inactive) | > 100 µM (inactive) | > 100 µM (inactive) | > 100 | > 100 µM (inactive) | > 100 µM (inactive) | > 100 µM (inactive) | > 100 µM (inactive) | > 100 µM (inactive) | > 100 µM (inactive) | > 100 µM (inactive) | > 100 µM (inactive) | > 100 µM (inactive) | > 100 µM (inactive) | > 100 µM (inactive) | > 100 µM (inactive) | > 100 µM (inactive) | > 100 µM (inactive)
